Experimental data as given in patent publication US20070140897A1, “PH STABLE BIGUANIDE COMPOSITION AND METHOD OF TREATMENT AND PREVENTION OF INFECTIONS” (priority 2005, published 2007).
≈ marks a conversion by molar mass, not a printed value.

How the values were obtained:
[1] = Loss of Alexidine due to non-specific binding to glass vial at different pH; format: physicochemical; settings: 20 ppm, two weeks
Method: Alexidine sample solutions (20 ppm) were prepared at different pHs and quantitative amount were stored in glass vial for two weeks. At the end of storage, the sample solution was removed and thoroughly rinsed with distilled water. The empty sample vials were then rinsed with 0.1 N HCl solution. The concentration of Alexidine in the acid solution was determined by HPLC assay and the amount recovered from glass wall was calculated in Table 1.

[2] = Anterior ocular and systemic pharmacokinetics after repeated topical ocular administration (TID, 10 doses); format: in vivo, male New Zealand Composite rabbits; settings: for AUC(0-24) / DNAUC(0-24) / Cmax / Tmax: TID dosing (dose 10), 10 μg/eye; for Cmax / Tmax: topical or ocular, 10 ug
Method: This study was to investigate anterior ocular and systemic pharmacokinetics of alexidine following repeated topical ocular administration (3 doses/day; 10 doses total) of a 100 ppm solution to male New Zealand Composite rabbits.
This study was carried out using a non-crossover design and a total of 52 naïve male New Zealand Composite rabbits. Each animal (fed) received a topical ocular dose of alexidine at approximately 7 am, 12 noon and 5 pm on Day 1, Day 2 and Day 3. On the morning of Day 4, each animal received the final (10th) topical ocular dose. For each dose administration, animals received approximately 100 μL of a 100 ppm solution (10 μg dose) as a topical instillation into the conjunctival sac of each eye using a positive-displacement pipette.
On Day 4, rabbits (n=4 per collection time) were euthanized and the eyes enucleated and dissected. Samples of blood (centrifuged to obtain plasma), tear, conjunctiva, cornea, and aqueous humor were obtained from both eyes of each animal. Samples were collected prior to administration of the final dose, and 5, 15, and 30 min and 1, 2, 4, 8, 24, 32, 48, 56, and 72 hr after dosing. Non-compartmental methods were used for pharmacokinetic analysis of concentration versus time data. Due to the destructive sampling regimen employed in this study average composite data were used in the pharmacokinetic analysis.
Abbreviations used in this diagram are as follows. Cmax is defined as the maximum mean concentration attained after topical instillation (±SD). Tmax is the time that Cmax was observed.

[3] = Pharmacokinetics after single topical ocular dose 10 μg/eye (BL06029); format: in vivo, rabbit; settings: single dose 10 μg/eye (BL06029); for Cmax / Tmax: rabbit, topical or ocular, 10 ug
[4] = system: acantamoeba cysts and trophazoites; settings: cited from earlier work
Aspergillus keratitis = settings: 0.02%; cited from earlier work
Fusarium Keratomycosis = settings: 0.02% solution, rabbit model; cited from earlier work
Acanthamoeba keratitis = settings: case report, recurrence in corneal graft; cited from earlier work
[5] = male, New Zealand Composite, rabbit, Conjunctiva
[6] = male, New Zealand Composite, rabbit, Cornea

Molecule: CCCCC(CC)CNC(=N)NC(=N)NCCCCCCNC(=N)NC(=N)NCC(CC)CCCC (stereo not drawn) [Alexidine, 1,1′-hexamethylene-bis[5-(2-ethylhexyl)biguanide]]
- % Adsorbed on Glass Vial ([1]; pH 3): 1.0%
- % Adsorbed on Glass Vial ([1]; pH 5): 4.0%
- % Adsorbed on Glass Vial ([1]; pH 7): 7.5%
- % Adsorbed on Glass Vial ([1]; pH 9): 12.5%
- % Adsorbed on Glass Vial ([1]; pH 11): 23.5%
- AUC(0-24) ([2]; Conjunctiva): 11461 µg·min/g
- DNAUC(0-24) ([2]; Conjunctiva): 1146 (min · ug/g) ÷ ug
- AUC(0-24) ([2]; Cornea): 2727 µg·min/g
- DNAUC(0-24) ([2]; Cornea): 273 (min · ug/g) ÷ ug
- mean concentrations in conjunctiva ([2]; at all times through the 72 hr after the final 10-μg dose): ≥ 5100 ng/g
- AUC(0-t) ([2]; male, New Zealand Composite, rabbit, conjunctiva, topical, repeated administration of a 10-μg dose, value used for AUC:MIC90 ratio, read-out: AUC(0-24)): 191 µg·h/mL
- Cmax [2, 5]: 15100 ± 4120 ng/g
- Tmax [2, 5]: 5 min
- Cmax [2, 6]: 3740 ± 1790 ng/g
- Tmax [2, 6]: 30 min
- tolerability ([2]; repeated administration of a 100 ppm solution, topical ocular): well tolerated in all animals
- levels in aqueous humor ([3]; Aq. Humor): No Quantifiable levels (<0.5 ng/mL)
- AUC(0-24) ([3]; Conjunctiva): 5697 µg·min/g
- DNAUC(0-24) ([3]; Conjunctiva): 570 (min · ug/g) ÷ ug
- AUC(0-24) ([3]; Cornea): 557 µg·min/g
- DNAUC(0-24) ([3]; Cornea): 55.7 (min · ug/g) ÷ ug
- levels in plasma ([3]; Plasma): No Quantifiable levels (<0.5 ng/mL)
- Cmax ([3]; Conjunctiva): 6440 ng/g
- Tmax ([3]; Conjunctiva): 480 min
- Cmax ([3]; Cornea): 997 ng/g
- Tmax ([3]; Cornea): 15 min
- minimum inhibitory concentration [4]: 6.3 µg/mL (≈ 12.4 µM)

Molecule: poly(hexamethylene biguanide) [PHMB]
- effectiveness in experimental Aspergillus keratitis (Aspergillus keratitis): moderately effective
- reducing fungal growth (Fusarium Keratomycosis): effective at reducing fungal growth
- treatment of recurrences of Acanthamoeba keratitis (Acanthamoeba keratitis): successfully treated
